{"source": "patent US11292803B2", "about": "“Bioreducible N-oxide-based probes for imaging of hypoxia” (THE BOARD OF TRUSTEES OF THE UNIVERSITY OF ILLINOIS, priority 2018, dated 2022)", "key": {"[1]": {"tested_on": "rat liver microsomes", "experiment": "PA response after rat liver microsome incubation, tissue-mimicking phantom", "format": "biochemical", "details": "2 h incubation with RLM, quenched with acetonitrile", "experimental": "FIG. 4. Hypoxia-selective response of HyP-1 in vitro. […] Dashed lines indicate positioning of FEP tubes.\nTissue phantoms were prepared by suspending agarose (4 g) in a solution of 2% milk (2 mL) and deionized H2O (78 mL). The suspension was then heated in a microwave oven until a viscous gel was produced (30-50 seconds). The gel was transferred to a mold made by drilling holes through a 50 mL centrifuge tube and placing FEP tubes (0.08″ diameter) through the holes to create spaces for samples. After cooling the gel for a minimum of 3 hours, the solidified phantom was removed from the mold and cut with a razor blade such that the distance from the sample holes to the phantom's edges was 1.0 cm. To image samples, sample solutions were pipetted into FEP tubing (0.08″ diameter, cut to 10 cm long) which was inserted into the phantom and sealed by folding over the ends and securing with additional tubing (0.12″ diameter, cut to 5 mm long). Images were acquired using the Step and Shoot mode with 120 angles and 10 pulses per angle. Data was analysed using OsiriX Lite software (Version 8.0). Thick slab processing was used to visualize accumulated signal over 5 mm. ROIs of equal area were drawn around areas containing signal, and mean PA signal in each ROI was recorded."}, "[2]": {"experiment": "Response of probe to Fe(II)", "experimental": "FIG. 8. Ratiometric fluorescence turn-on response of HyP-1 (2 μM) in the presence of FeSO4 (20 μM) and FeSO4 (20 μM)+GSH (1 mM) in 50 mM HEPES buffer (pH 7.4, 0.1% v/v CrEL) after 1 h incubation at 37° C.\nFe(II)-mediated reduction of N-oxides has been exploited previously for the development of several fluorescent probes for this metal ion, thus it was critical for us to determine the response of HyP-1 to Fe(II). […] However, because intracellular concentrations of free iron are low due to sequestration by ferritin, this was not anticipated to be a major source of HyP-1 activation in vivo."}, "[3]": {"tested_on": "4T1 cells", "experiment": "Ratiometric fluorescence of cells, IVIS Spectrum", "format": "cell-based, murine", "details": "4T1 cells, 5 μM HyP-1, 4 hours, IVIS Spectrum", "experimental": "Ratiometric fluorescence imaging was also performed on 4T1 cells cultured in 6-well plates using an IVIS Spectrum imaging system. Cells were stained with a 5 μM solution of HyP-1 and incubated in either normoxic or hypoxic conditions for 4 hours (FIG. 5c). […] To further verify the in vitro results and determine the cellular factors responsible for HyP-1 reduction, cells were also stained with HyP-1 solutions containing either BIPY or DPI at multiple concentrations and incubated under hypoxic conditions.\nAuthenticated 4T1 cells were purchased from ATCC. Cells were grown in RPMI 1640 medium supplemented with 10% fetal bovine serum. Cells were cultured at 37° C. in 5% CO2 and 20% 02 for normoxic conditions. Hypoxic cell culture was performed by incubating cells in a sealed container with a Mitsubishi AnaeroPack™ anaerobic gas generator. Hypoxic conditions were verified with the use of a Mitsubishi RT Anaero-Indicator.\nFor cellular imaging using the IVIS Spectrum imaging system, cells were plated in a 6-well plate at an initial density of 1.7×10^4 cells/mL and allowed to grow until 60-80% confluent (approximately 3 days). Media was removed and cells were washed with PBS. A […] solution of HyP-1 in serum-free medium was added, and cells were incubated under normoxic or hypoxic conditions for 4 hours. For BIPY and DPI experiments, the staining solution was supplemented with the compound at the appropriate concentration, and ratiometric turn-on was reported relative to a vehicle control. Images were obtained using excitation and emission filter sets of 675/720 nm and 745/800 nm. Regions of interest (ROIs) were drawn around cell-containing wells, and ratiometric signal was calculated by determining the ratio of radiant efficiency corresponding to 800 nm and 720 nm emissions."}, "[4]": {"tested_on": "4T1 tumour allografts", "experiment": "In vivo fluorescence imaging of hypoxic tumour model", "parameters": "species or system BALB/c mice", "details": "intratumoural injection 50 μL, 100 μM; after 1 hour", "experimental": "Tumour allografts were generated via subcutaneous implantation of 4T1 cells into the right flanks of BALB/c mice. The tumours were allowed to grow to volumes of 300-400 mm^3 prior to imaging. As an initial study to visualize the intratumoural conversion of HyP-1 to red-HyP-1 in real time, ratiometric fluorescence imaging was performed immediately following administration of HyP-1 (50 μL, 100 μM) via intratumoural or subcutaneous (control) injection.\nAll in vivo imaging experiments were performed with the approval of the Institutional Animal Care and Use Committee of the University of Illinois at Urbana-Champaign, following the principles outlined by the American Physiological Society on research animal use. Female mice (5-6 weeks old) were acquired from The Jackson Laboratory. A suspension of 0.5×10^6 cells in serum-free medium containing 50% v/v matrigel (100 μL) was subcutaneously injected into the right flank of each mouse. Tumours with volumes of 300-400 mm^3 formed after 12-15 days. […]\nImages were obtained using epi-fluorescence with excitation filters of 675 and 745 and corresponding emission filters of 720 and 800, respectively. […] ROIs of equal area were drawn around signals, and the total radiant efficiency in each ROI was determined. Ratiometric signal was calculated by determining the ratio of radiant efficiency corresponding to 800 nm and 720 nm emissions."}, "[5]": {"tested_on": "ischemic hindlimb tissue", "experiment": "In vivo PA imaging of hindlimb ischemia model", "parameters": "species or system BALB/c mice", "details": "intramuscular 50 μL, 50 μM; 1 hour after injection", "experimental": "After observing the hypoxia-mediated response of HyP-1 in the hindlimb ischemia model, attention was turned to detecting this response using PA imaging. As described above, surgical ligation was employed to induce ischemia, and HyP-1 (50 μL, 50 μM) was administered via intramuscular injection.\nAll in vivo imaging experiments were performed with the approval of the Institutional Animal Care and Use Committee of the University of Illinois at Urbana-Champaign, following the principles outlined by the American Physiological Society on research animal use. Female mice (5-6 weeks old) were acquired from The Jackson Laboratory. […] Animals that underwent unsuccessful surgery as determined by laser Doppler perfusion imaging were excluded from analysis.\nPrior to imaging, hair was removed from the lower body half by shaving and treating with a topical hair removal cream. Mice were positioned on their sides such that the area to be imaged was directly above the light source. Images were acquired using the Step and Shoot mode with 120 angles and 30 pulses per angle. Data was analysed using OsiriX software. […] ROIs of equal area were drawn to include all visible signal in the image, and mean PA signal in each ROI was recorded. Change in PA signal was calculated by subtracting signal from images taken prior to injection from those at given time points."}}}
{"smiles": "CC[N+]([O-])(CC)c1ccc(-c2cc(-c3ccccc3)c3n2[B-](F)(F)[N+]2=C(c4ccc(OC)cc4)C=C(c4ccccc4)C2=N3)cc1", "note": "[HyP-1, 4-(5,5-difluoro-7-(4-methoxyphenyl)-1,9-diphenyl-5H-5λ^4,6λ^4-dipyrrolo[1,2-c:2′,1′-f][1,3,5,2]triazaborinin-3-yl)-N,N-diethylaniline oxide]", "values": [{"measurement": "PA signal (770 nm), hypoxic reaction versus normoxic", "setting": "[1]", "value": 4, "unit": "fold"}, {"measurement": "ratiometric turn-on", "setting": "[2]; 20 μM FeSO4 + 1 mM GSH, HEPES buffer, 1 h", "value": 35, "unit": "fold"}, {"measurement": "ratiometric turn-on", "setting": "[2]; 20 μM FeSO4 in HEPES buffer, 1-hour incubation", "value": 8, "unit": "fold"}, {"measurement": "ratiometric response, hypoxic versus normoxic wells", "setting": "[3]", "value": 2.5, "unit": "fold"}, {"measurement": "ratiometric fluorescent turn-on, tumour tissue versus subcutaneous control", "setting": "[4]", "value": 5.6, "unit": "fold"}, {"measurement": "PA signal enhancement, ischemic tissue versus control leg", "setting": "[5]", "value": 3.1, "unit": "fold"}]}
